Data from patent publication US20150072929A1, “Pharmaceutical composition comprising a mixture of carboxylated oligopeptides” (priority 2013, published 2015).

Columns and labels:
HeLa-2 cells = assay: Anti-cancer activity in cell culture, MAD and cytopathic activity; type: cell-based; conditions: minimum amount causing degeneration of 90-95% of the cells, five days
Protocol: The anti-cancer activity of MPs. The determination of the anti-cancer activity of Anticanum in a cell culture was made in a culture of HeLa-2 cells. For this purpose, 20-120 mcg of MPs per ml of medium were added to the 199 medium. (See Table 2.) A culture without MPs in it was used as a control. Cultures were observed daily over the course of five days.

[1] = system: Ehrlich's ascites adenocarcinoma; assay: Ehrlich's ascites adenocarcinoma in Barbados mice; conditions: n = 10
benzidine skin sarcoma = assay: Benzidine skin sarcoma in Barbados mice

Compound: CC(=O)O[C@@]12CO[C@@H]1C[C@H](O)[C@@]1(C)C(=O)[C@H](O)C3=C(C)[C@@H](OC(=O)[C@H](O)[C@@H](NC(=O)OC(C)(C)C)c4ccccc4)C[C@@](O)([C@@H](OC(=O)c4ccccc4)[C@H]21)C3(C)C [Taxotere]
- MAD (HeLa-2 cells): 10 µg/mL
- Time of Death of Animals after the First Injection, Average Value, Experimental Animals ([1]; IP): 14 ± 1 days
- Time of Death of Animals after the First Injection, Average Value, Experimental Animals ([1]; IV): 15 ± 1 days
- Weight of Animal, After Treatment (benzidine skin sarcoma; 100 mcg/kg parenterally twice a day for two weeks, n = 7): 23 ± 1.1 g
- Weight of Animal, Before Treatment (benzidine skin sarcoma; baseline, n = 7): 27 ± 2 g
- Mice died (benzidine skin sarcoma; during treatment, n = 7): 2
- Animal Survival (benzidine skin sarcoma; n = 10): 28 ± 1.1 days
